The values below come from patent US20230399289A1, “ITACONIC ACID DERIVATIVES” (Sitryx Therapeutics Limited, priority 2020, published 2023).

Series [1] relates to IL-1β cytokine output from THP-1 cells. Description: THP-1 AlphaLISA IL-1β cytokine assay. Type of series: cell-based. Conditions: Homo sapiens, THP-1, differentiated THP-1 cells. The protocol: (§1) Measuring Inhibitory Effects on IL-1β and IL-6 Cytokine Output from THP-1s
(§2) The cytokine inhibition profiles of compounds of formula (I) were determined in a differentiated THP-1 cell assay. All assays were performed in RPMI-1640 growth medium (Gibco), supplemented with 10% fetal bovine serum (FBS; Gibco), 1% penicillin-streptomycin and 1% sodium pyruvate unless specified otherwise. The IL-1β and IL-6 cytokine inhibition assays were each run in a background of differentiated THP-1 cells as described below. All reagents described were from Sigma-Aldrich unless specified otherwise. Compounds were prepared as 10 mM DMSO stocks.
(§3) THP-1 cells were expanded as a suspension up to 80% confluence in appropriate growth medium. Cells were harvested, suspended, and treated with an appropriate concentration of phorbol 12-myristate 13-acetate (PMA) over a 72 hr period (37° C./5% CO2).
(§4) Following 72 hrs of THP-1 cell incubation, cellular medium was removed and replaced with fresh growth media containing 1% of FBS. Working concentrations of compounds were prepared separately in 10% FBS treated growth medium and pre-incubated with the cells for 30 minutes (37° C./5% CO2). Following the 30 minute compound pre-incubation, THP-1s were treated with an appropriate concentration of LPS and the THP-1s were subsequently incubated for a 24 hr period (37° C./5% CO2). An appropriate final concentration of Nigericin was then dispensed into the THP-1 plates and incubated for 1 hour (37° C./5% CO2) before THP-1 supernatants were harvested and collected in separate polypropylene 96-well holding plates.
(§5) Reagents from each of the […] and IL-6 commercial kits (Perkin Elmer) were prepared and run according to the manufacturer's instructions. Subsequently, fluorescence signal detection in a microplate reader was measured (EnVision® Multilabel Reader, Perkin Elmer).
(§6) Percentage inhibition was calculated per cytokine by normalising the sample data to the high and low controls used within each plate (+/−LPS respectively). Percentage inhibition was then plotted against compound concentration and the 50% inhibitory concentration (IC50) was determined from the resultant concentration-response curve.
(In general: Bead proximity is the source of the signal in Alpha formats.)

The subject of series [2] is IL-6 cytokine output from THP-1 cells. Briefly: THP-1 AlphaLISA IL-6 cytokine assay. Type of series: cell-based. Conditions: Homo sapiens, THP-1, differentiated THP-1 cells. As to the method: as §1, §2, §3, §4, §5, §6
Series [3] has as its system NRF2 (nuclear factor erythroid 2-related factor 2). Description: NRF2 +/−GSH activation assay (DiscoverX PathHunter NRF2 translocation kit, U2OS cells). Conditions: Homo sapiens; for Emax: U2OS, normalised to dimethyl fumarate high control; for EC50: U2OS PathHunter cells, 6 hours. Type of series: cell-based.
Series [4] is described as follows: Hepatocyte stability assay, human. Format: in vitro ADME. Conditions: cryopreserved hepatocytes, 10 μM compound, 0.5×10^6 cells/mL, 60 min, read-out: T½. From the text:
(§7) Defrosted cryo-preserved hepatocytes (viability>70%) may be used to determine the metabolic stability of a compound via calculation of intrinsic clearance (Clint; a measure of the removal of a compound from the liver in the absence of blood flow and cell binding). Clearance data are particularly important for in vitro work as they can be used in combination with in vivo data to predict the half-life and oral bioavailability of a drug.
(§8) The metabolic stability in hepatocytes assay involves a time-dependent reaction using both positive and negative controls. The cells were pre-incubated at 37° C. and spiked with test compound (and positive control); samples were taken at pre-determined time intervals and analysed to monitor the change in concentration of the initial drug compound over 60 minutes. A buffer incubation reaction (with no hepatocytes present) acted as a negative control and two cocktail solutions, containing compounds with known high and low clearance values (verapamil/7-hydroxycoumarin and propranolol/diltiazem), acted as positive controls. • 1. The assay was run with a cell concentration of 0.5×10^6 cells/mL in Leibovitz buffer. • 2. All compounds and controls were run in duplicate. • 3. Compound concentration was 10 μM. • 4. All compounds and controls were incubated with both cells and buffer to show turnover was due to hepatic metabolism. • 5. All wells on the incubation plate had 326.7 μL of either cells or buffer added. • 6. Prior to assay, cell and buffer-only incubation plates were preincubated for 10 mins at 37° C. • 7. The assay was initiated by adding compounds, 3.3 μL of 1 mM in 10% DMSO-90% Buffer; final DMSO concentration is 0.1%. • 8. Samples were taken at regular timepoints (0, 5, 10, 20, 40, 60 min) until 60 mins. • 9. Sample volume was 40 μL and was added to 160 μL of crash solvent (acetonitrile with internal standard) and stored on ice. • 10. At the end of the assay, the crash plates were centrifuged at 3500 rpm for 20 mins at 4° C. • 11. 80 μL of clear supernatant was removed and mixed with 80 μL of deionised water before being analysed by LC-MS/MS.
(§9) Raw LC-MS/MS data was exported to, and analysed in, Microsoft Excel for determination of intrinsic clearance. The percentage remaining of a compound was monitored using the peak area of the initial concentration as 100%. Intrinsic clearance and half-life values were calculated using a graph of the natural log of percentage remaining versus the time of reaction in minutes. Half-life (min) and intrinsic clearance (Clint in μL min^−1 10^−6 cells) values were calculated using the gradient of the graph (the elimination rate constant, k) and Equations 1 and 2.

The subject of series [5] is hepatocytes. Briefly: Hepatocyte stability assay, human. Type of series: in vitro ADME. Conditions: 10 μM compound, 0.5×10^6 cells/mL, 60 min.
Description: as §7, §8, §9

Series [6] in a line: Hepatocyte stability assay, mouse. Format: in vitro ADME. Conditions: cryopreserved hepatocytes, 10 μM compound, 0.5×10^6 cells/mL, 60 min, read-out: T½.
Description: as §7, §8, §9

The subject of series [7] is hepatocytes. Description: Hepatocyte stability assay, mouse. Type of series: in vitro ADME. Conditions: 10 μM compound, 0.5×10^6 cells/mL, 60 min.
Description: as §7, §8, §9

Setting [8] is: LPS 24 hr then Nigericin 1 hour.
[9] abbreviates: +GSH, 30 minute compound-GSH pre-incubation.

What is called IC50 is the midpoint of a concentration-inhibition curve. In general, Emax refers to the greatest response seen or fitted, relative to the assay's reference. In general, EC50 refers to the concentration at which the effect is half-maximal. A low value points to higher potency in that assay.

The structures appear in SMILES notation.

Regarding `C=C(CC(=O)OC1(c2cc(Cl)cc(Cl)c2)CCC1)C(=O)OCCC(=O)O` [Example 13, 3-((4-(1-(3,5-dichlorophenyl)cyclobutoxy)-2-methylene-4-oxobutanoyl)oxy)propanoic acid], the half-inhibitory concentration (IC50) in series [1] (setting [8]) came out at 12.5 µM; in series [2] (setting [8]), 5.9 µM. Besides, the Emax in series [3] (+GSH) came out at 143%; in series [3] (−GSH) it was 251%. Further, the EC50 was 11.6 µM in series [3] (setting [9]) and 7.6 µM in series [3] (−GSH). Moreover, the half-life at 10 μM in series [4] was 1.67 h; in series [6], less than 0.05 h. Further, the CIint in the series with hepatocytes [5] is listed as 16 μL min^−1 10^−6 cells; with hepatocytes [7], more than 460 μL min^−1 10^−6 cells.
Consider `C=C(CC(=O)OC1(c2ccc(C(F)(F)F)cc2)CCC1)C(=O)OCC(=O)O` [Example 2, 2-((2-methylene-4-oxo-4-(1-(4-(trifluoromethyl)phenyl)cyclobutoxy)butanoyl)oxy)acetic acid], for which the IC50 in series [1] (setting [8]) came out at 7.7 µM; in series [1] (from repeated experiments), 9.1 µM; in series [2] (setting [8]) it was 5.2 µM; in series [2] (from repeated experiments), 7.7 µM. The Emax in series [3] (+GSH) is 167%; in series [3] (−GSH), 217%. Also, the EC50 in series [3] (setting [9]) was 21.6 µM; in series [3] (−GSH), 15.4 µM. For the same compound, the half-life at 10 μM in series [4] was more than 7.67 h; in series [6], 0.633 h. Moreover, the CIint in the series on hepatocytes [5] is less than 3 μL min^−1 10^−6 cells; in the series on hepatocytes [7] it was 50 μL min^−1 10^−6 cells.
On to `C=C(CC(=O)OC1(c2c(Cl)cccc2Cl)CCC1)C(=O)OCC(=O)O` [Example 8, 2-((4-(1-(2,6-dichlorophenyl)cyclobutoxy)-2-methylene-4-oxobutanoyl)oxy)acetic acid], for which the values for the IC50 in series [1] (setting [8]) and in series [2] (setting [8]) were 15.2 µM and 6 µM, respectively. Moreover, the Emax in series [3] (+GSH) is 170%; in series [3] (−GSH) it was 193%. Further, the EC50 in series [3] (setting [9]) was determined as 18.7 µM; in series [3] (−GSH), 12.2 µM. Also, the results for the half-life at 10 μM in series [4] and in series [6] were 2.37 h and 0.15 h, respectively. The CIint was determined as 11 μL min^−1 10^−6 cells with hepatocytes [5] and 223 μL min^−1 10^−6 cells in the series on hepatocytes [7].
On to `C=C(CC(=O)OC1(c2ccc(C(F)(F)F)cc2)CCC1)C(=O)OC1(CC(=O)O)COC1` [Example 33, 2-(3-((2-methylene-4-oxo-4-(1-(4-(trifluoromethyl)phenyl)cyclobutoxy)butanoyl)oxy)oxetan-3-yl)acetic acid], for which the 50% inhibitory concentration (IC50) came to 2.4 µM in series [1] (setting [8]) and 5.7 µM in series [2] (setting [8]). For the same compound, the Emax in series [3] (+GSH) was 118%; in series [3] (−GSH), 162%. Also, the EC50 in series [3] (setting [9]) amounted to 20.7 µM; in series [3] (−GSH) it was 8.4 µM. In addition, the values for the half-life at 10 μM in series [4] and in series [6] were 3.37 h and 0.3 h, respectively. In addition, the CIint in the series with hepatocytes [5] is reported as 7 μL min^−1 10^−6 cells; with hepatocytes [7], 82 μL min^−1 10^−6 cells.
As to `C=C(CC(=O)OC1(c2ccc(C(F)(F)F)cc2)CCC1)C(=O)OCCC(=O)O` [Example 22, 3-((2-methylene-4-oxo-4-(1-(4-(trifluoromethyl)phenyl)cyclobutoxy)butanoyl)oxy)propanoic acid], the IC50 in series [1] (setting [8]) was found to be 10.3 µM; in series [2] (setting [8]), 11.2 µM. Besides, the values for the Emax in series [3] (+GSH) and in series [3] (−GSH) were 183% and 225%, respectively. For the same compound, the figures for the EC50 in series [3] (setting [9]) and in series [3] (−GSH) were 22.3 µM and 14.9 µM, respectively. The figures for the half-life at 10 μM in series [4] and in series [6] were 2.6 h and 0.2 h, respectively. The CIint in the series on hepatocytes [5] is recorded as 9 μL min^−1 10^−6 cells; with hepatocytes [7], 128 μL min^−1 10^−6 cells.
Turning to `C=C(CC(=O)OC1(c2ccc(Cl)cc2)CCC1)C(=O)OCC(=O)O` [Example 4, 2-((4-(1-(4-chlorophenyl)cyclobutoxy)-2-methylene-4-oxobutanoyl)oxy)acetic acid], the IC50 in series [1] (setting [8]) came to 12.4 µM; in series [2] (setting [8]) it was 6.9 µM. Moreover, the values for the Emax in series [3] (+GSH) and in series [3] (−GSH) were 171% and 192%, respectively. Also, the figures for the EC50 in series [3] (setting [9]) and in series [3] (−GSH) were 28.9 µM and 19 µM, respectively. The half-life at 10 μM in series [4] came out at 3.15 h; in series [6], 0.467 h. For the same compound, the values for the CIint in the series with hepatocytes [5] and in the series with hepatocytes [7] were 8 μL min^−1 10^−6 cells and 69 μL min^−1 10^−6 cells, respectively.
